{"source": "patent US20260042731A1", "about": "“(2,4-DICHLOROPHENOXY)ACETIC ACID ANALOGS” (CORTEVA AGRISCIENCE LLC, priority 2022, published 2026)", "key": {"[1]": {"test": "Volatility of compounds measured by thermogravimetric analysis (TGA)", "format": "physicochemical"}, "[2]": {"system": "ABUTH, AMATA, AMBEL, CHEAL, ERICA weeds", "test": "Postemergence herbicide evaluation, overall average % weed control across ABUTH, AMATA, AMBEL, CHEAL, ERICA", "format": "in vivo", "excerpt": "For example, the pesticidal activity may include herbicidal activity."}, "[3]": {"system": "Ambrosia artemisiifolia (AMBEL), common ragweed", "test": "Postemergence herbicide evaluation, growth of Ambrosia artemisiifolia (AMBEL)", "format": "in vivo", "details": "Ambrosia artemisiifolia, post-emergence, read-out: AVE. AMBEL, percent reduction in plant size relative to the untreated control; for pest or weed control at 280 g/ha: 280 g ae/ha; for pest or weed control at 560 g/ha: 560 g ae/ha"}, "[4]": {"system": "Amaranthus rudis (AMATA), tall water hemp", "test": "Postemergence herbicide evaluation, growth of Amaranthus rudis (AMATA)", "format": "in vivo", "details": "Amaranthus tuberculatus, post-emergence, read-out: Ave. AMATA, percent reduction in plant size relative to the untreated control; for pest or weed control at 280 g/ha: 280 g ae/ha; for pest or weed control at 560 g/ha: 560 g ae/ha"}, "[5]": {"system": "Glycine max (Enlist E3 traited soybeans, GLXMA)", "details": "Enlist E3 soybeans"}, "[6]": {"system": "weeds ABUTH, AMATA, AMBEL, CHEAL, ERICA", "test": "Postemergence herbicide evaluation, overall average % weed control (ABUTH, AMATA, AMBEL, CHEAL, ERICA)", "format": "in vivo", "details": "post-emergence, read-out: Overall Ave % Weed Control; for pest or weed control at 280 g/ha: 280 g ae/ha; for pest or weed control at 560 g/ha: 560 g ae/ha"}, "[7]": {"system": "glyphosate resistant Conyza canadensis (L.) (ERICA), horseweed", "test": "Postemergence herbicide evaluation, growth of Conyza canadensis (ERICA)", "format": "in vivo", "details": "Erigeron canadensis, post-emergence, read-out: Ave. ERICA, percent reduction in plant size relative to the untreated control; for pest or weed control at 280 g/ha: 280 g ae/ha; for pest or weed control at 560 g/ha: 560 g ae/ha"}, "[8]": {"system": "Abutilon theophrasti (ABUTH), velvetleaf", "test": "Postemergence herbicide evaluation, growth of Abutilon theophrasti (ABUTH)", "format": "in vivo", "details": "Abutilon theophrasti, post-emergence, read-out: AVE. ABUTH, percent reduction in plant size relative to the untreated control; for pest or weed control at 280 g/ha: 280 g ae/ha; for pest or weed control at 560 g/ha: 560 g ae/ha"}, "[9]": {"system": "Chenopodium album (CHEAL), common lambsquarters", "test": "Postemergence herbicide evaluation, growth of Chenopodium album (CHEAL)", "format": "in vivo", "details": "Chenopodium album, post-emergence, read-out: Ave. CHEAL, percent reduction in plant size relative to the untreated control; for pest or weed control at 280 g/ha: 280 g ae/ha; for pest or weed control at 560 g/ha: 560 g ae/ha"}}, "note": "Where two headings read alike, the source gives them in different places.", "data": [{"smiles": "CN(NC(=O)COc1ccc(Cl)cc1Cl)c1ccccc1", "note": "[Compound D11, 2-(2,4-Dichlorophenoxy)-N′-methyl-N′-phenylacetohydrazide]", "values": [{"measurement": "TGA Data (rate of weight loss, volatility)", "setting": "[1]", "result": 0.06, "unit": "µg/min"}, {"measurement": "Overall Ave % Weed Control", "setting": "[2]; 280 g ae/ha, 7 DAA", "result": 63, "unit": "%"}, {"measurement": "Overall Ave % Weed Control", "setting": "[2]; 280 g ae/ha, 14 DAA", "result": 76, "unit": "%"}, {"measurement": "Overall Ave % Weed Control", "setting": "[2]; 280 g ae/ha, 21 DAA", "result": 80, "unit": "%"}, {"measurement": "Overall Ave % Weed Control", "setting": "[2]; 560 g ae/ha, 7 DAA", "result": 69, "unit": "%"}, {"measurement": "Overall Ave % Weed Control", "setting": "[2]; 560 g ae/ha, 14 DAA", "result": 82, "unit": "%"}, {"measurement": "Overall Ave % Weed Control", "setting": "[2]; 560 g ae/ha, 21 DAA", "result": 89, "unit": "%"}]}, {"smiles": "C[N+](C)(C)CCOC(=O)COc1ccc(Cl)cc1Cl.[Cl-]", "note": "[Compound E3, 2-(2-(2,4-Dichlorophenoxy)acetoxy)-N, N, N-trimethylethanaminium chloride]", "values": [{"measurement": "pest or weed control at 280 g/ha", "setting": "[3]; 168 h, 7 DAA", "result": 63, "unit": "%"}, {"measurement": "pest or weed control at 560 g/ha", "setting": "[3]; 168 h, 7 DAA", "result": 75, "unit": "%"}, {"measurement": "pest or weed control at 280 g/ha", "setting": "[3]; 336 h, 14 DAA", "result": 89, "unit": "%"}, {"measurement": "pest or weed control at 560 g/ha", "setting": "[3]; 336 h, 14 DAA", "result": 93, "unit": "%"}, {"measurement": "pest or weed control at 280 g/ha", "setting": "[3]; 504 h, 21 DAA", "result": 95, "unit": "%"}, {"measurement": "pest or weed control at 560 g/ha", "setting": "[3]; 504 h, 21 DAA", "result": 98, "unit": "%"}, {"measurement": "pest or weed control at 280 g/ha", "setting": "[4]; 168 h, 7 DAA", "result": 78, "unit": "%"}, {"measurement": "pest or weed control at 560 g/ha", "setting": "[4]; 168 h, 7 DAA", "result": 78, "unit": "%"}, {"measurement": "pest or weed control at 280 g/ha", "setting": "[4]; 336 h, 14 DAA", "result": 78, "unit": "%"}, {"measurement": "pest or weed control at 560 g/ha", "setting": "[4]; 336 h, 14 DAA", "result": 85, "unit": "%"}, {"measurement": "pest or weed control at 280 g/ha", "setting": "[4]; 504 h, 21 DAA", "result": 75, "unit": "%"}, {"measurement": "pest or weed control at 560 g/ha", "setting": "[4]; 504 h, 21 DAA", "result": 83, "unit": "%"}, {"measurement": "AVE. GLXMA, percent reduction in plant size relative to the untreated control", "setting": "[5]; 280 g ae/ha, 7 DAA", "result": 0, "unit": "%"}, {"measurement": "AVE. GLXMA, percent reduction in plant size relative to the untreated control", "setting": "[5]; 280 g ae/ha, 14 DAA", "result": 0, "unit": "%"}, {"measurement": "AVE. GLXMA, percent reduction in plant size relative to the untreated control", "setting": "[5]; 280 g ae/ha, 21 DAA", "result": 3, "unit": "%"}, {"measurement": "AVE. GLXMA, percent reduction in plant size relative to the untreated control", "setting": "[5]; 560 g ae/ha, 7 DAA", "result": 0, "unit": "%"}, {"measurement": "AVE. GLXMA, percent reduction in plant size relative to the untreated control", "setting": "[5]; 560 g ae/ha, 14 DAA", "result": 0, "unit": "%"}, {"measurement": "AVE. GLXMA, percent reduction in plant size relative to the untreated control", "setting": "[5]; 560 g ae/ha, 21 DAA", "result": 0, "unit": "%"}, {"measurement": "pest or weed control at 280 g/ha", "setting": "[6]; 168 h, 7 DAA", "result": 71, "unit": "%"}, {"measurement": "pest or weed control at 560 g/ha", "setting": "[6]; 168 h, 7 DAA", "result": 77, "unit": "%"}, {"measurement": "pest or weed control at 280 g/ha", "setting": "[6]; 336 h, 14 DAA", "result": 81, "unit": "%"}, {"measurement": "pest or weed control at 560 g/ha", "setting": "[6]; 336 h, 14 DAA", "result": 86, "unit": "%"}, {"measurement": "pest or weed control at 280 g/ha", "setting": "[6]; 504 h, 21 DAA", "result": 86, "unit": "%"}, {"measurement": "pest or weed control at 560 g/ha", "setting": "[6]; 504 h, 21 DAA", "result": 89, "unit": "%"}, {"measurement": "TGA Data (rate of weight loss, volatility)", "setting": "[1]", "result": 2.4, "unit": "µg/min"}, {"measurement": "pest or weed control at 280 g/ha", "setting": "[7]; 168 h, 7 DAA", "result": 73, "unit": "%"}, {"measurement": "pest or weed control at 560 g/ha", "setting": "[7]; 168 h, 7 DAA", "result": 78, "unit": "%"}, {"measurement": "pest or weed control at 280 g/ha", "setting": "[7]; 336 h, 14 DAA", "result": 83, "unit": "%"}, {"measurement": "pest or weed control at 560 g/ha", "setting": "[7]; 336 h, 14 DAA", "result": 88, "unit": "%"}, {"measurement": "pest or weed control at 280 g/ha", "setting": "[7]; 504 h, 21 DAA", "result": 95, "unit": "%"}, {"measurement": "pest or weed control at 560 g/ha", "setting": "[7]; 504 h, 21 DAA", "result": 93, "unit": "%"}, {"measurement": "pest or weed control at 280 g/ha", "setting": "[8]; 168 h, 7 DAA", "result": 75, "unit": "%"}, {"measurement": "pest or weed control at 560 g/ha", "setting": "[8]; 168 h, 7 DAA", "result": 83, "unit": "%"}, {"measurement": "pest or weed control at 280 g/ha", "setting": "[8]; 336 h, 14 DAA", "result": 78, "unit": "%"}, {"measurement": "pest or weed control at 560 g/ha", "setting": "[8]; 336 h, 14 DAA", "result": 93, "unit": "%"}, {"measurement": "pest or weed control at 280 g/ha", "setting": "[8]; 504 h, 21 DAA", "result": 86, "unit": "%"}, {"measurement": "pest or weed control at 560 g/ha", "setting": "[8]; 504 h, 21 DAA", "result": 97, "unit": "%"}, {"measurement": "pest or weed control at 280 g/ha", "setting": "[9]; 168 h, 7 DAA", "result": 68, "unit": "%"}, {"measurement": "pest or weed control at 560 g/ha", "setting": "[9]; 168 h, 7 DAA", "result": 70, "unit": "%"}, {"measurement": "pest or weed control at 280 g/ha", "setting": "[9]; 336 h, 14 DAA", "result": 78, "unit": "%"}, {"measurement": "pest or weed control at 560 g/ha", "setting": "[9]; 336 h, 14 DAA", "result": 73, "unit": "%"}, {"measurement": "pest or weed control at 280 g/ha", "setting": "[9]; 504 h, 21 DAA", "result": 80, "unit": "%"}, {"measurement": "pest or weed control at 560 g/ha", "setting": "[9]; 504 h, 21 DAA", "result": 77, "unit": "%"}]}]}
